In patent publication US5338736A, “Angiotensin II receptor blocking 2,3,6-substituted quinazolinones” (American Cyanamid Company, priority 1993, dated 1994):
“And” between values parts separate entries of the source, which are not always exact repeats. Equal values may be shown once.

Tested on: angiotensin II vasopressor response
Assay: AII challenge: inhibition of angiotensin II vasopressor response in conscious SHR
Format: in vivo, rat (Male Okamoto-Aoki SHR)
Conditions: 3 mg/kg iv; for % Inhibition / Average Change: n = 2
Description: By administering a compound of this invention to a rat, and then challenging with angiotensin II, a blockage of the vasopressor response is realized.
Conscious Male Okamoto-Aoki SHR, 16-20 weeks old, weighing approximately 330 g are purchased from Charles River Labs (Wilmington, Mass.). Conscious rats are restrained in a supine position with elastic tape. The area at the base of the tail is locally anesthetized by subcutaneous infiltration with 2% procaine. The ventral caudal artery and vein are isolated, and a cannula made of polyethylene (PE) 10-20 tubing (fused together by heat) is passed into the lower abdominal aorta and vena cava, respectively. The cannula is secured, heparinized (1,000 I.U./ml), sealed and the wound is closed. The animals are placed in plastic restraining cages in an upright position. The cannula is attached to a Statham P23Db pressure transducer, and pulsatile blood pressure is recorded to 10-15 minutes with a Gould Brush recorder. (Chan et al., (Drug Development Res., 18:75-94, 1989).
Angiotensin II (human sequence, Sigma Chem. Co., St. Louis, Mo.) of 0.05 and 0.1 μg/kg i.v. is injected into all rats (predosing response). Then a test compound, vehicle or a known angiotensin II antagonist is administered i.v., i.p. or orally to each set of rats. The two doses of angiotensin II are given to each rat again at 30. 60. 90. 120. 180. 240 and 300 minutes post dosing the compound or vehicle. The vasopressor response of angiotensin II is measured for the increase in systolic blood pressure in mmHg. The percentage of antagonism or blockade of the vasopressor response of angiotensin II by a compound is calculated using the vasopressor response (increase in systolic blood pressure) of angiotensin II of each rat predosing the compound as 100%. A compound is considered active if at 30 mg/kg i.v. it antagonized at least 50% of the response.

[1] = AII 0.05 mcg/kg, 30 min post dose
[2] = AII 0.05 mcg/kg, 60 min post dose
[3] = AII 0.05 mcg/kg, 90 min post dose
[4] = AII 0.05 mcg/kg, 120 min post dose
[5] = AII 0.05 mcg/kg, 180 min post dose
[6] = AII 0.05 mcg/kg, 240 min post dose
[7] = AII 0.05 mcg/kg, 300 min post dose
[8] = AII 0.1 mcg/kg, 30 min post dose
[9] = AII 0.1 mcg/kg, 60 min post dose
[10] = AII 0.1 mcg/kg, 90 min post dose
[11] = AII 0.1 mcg/kg, 120 min post dose
[12] = AII 0.1 mcg/kg, 180 min post dose
[13] = AII 0.1 mcg/kg, 240 min post dose
[14] = AII 0.1 mcg/kg, 300 min post dose

Compound: CCCCc1nc2ccc(C3CCC4CCCCC4O3)cc2c(=O)n1Cc1ccc(-c2ccccc2-c2nn[nH]n2)cc1 (stereo not shown) [Example 11]
- Change (response to AII, individual rat) [1]: 15 mmHg and 20 mmHg
- % Inhibition [1]: 59%
- Average Change [1]: 17.5 mmHg
- Change (response to AII, individual rat) [2]: 30 mmHg and 15 mmHg
- % Inhibition [2]: 47%
- Average Change [2]: 22.5 mmHg
- Change (response to AII, individual rat) [3]: 30 mmHg and 10 mmHg
- % Inhibition [3]: 53%
- Average Change [3]: 20 mmHg
- Change (response to AII, individual rat) [4]: 10 mmHg
- % Inhibition [4]: 76%
- Average Change [4]: 10 mmHg
- Change (response to AII, individual rat) [5]: 30 mmHg and 35 mmHg
- % Inhibition [5]: 24%
- Average Change [5]: 32.5 mmHg
- Change (response to AII, individual rat) [6]: 20 mmHg and 7 mmHg
- % Inhibition [6]: 68%
- Average Change [6]: 13.5 mmHg
- Change (response to AII, individual rat) [7]: 30 mmHg and 15 mmHg
- % Inhibition [7]: 47%
- Average Change [7]: 22.5 mmHg
- Change (response to AII, individual rat) [8]: 10 mmHg and 30 mmHg
- % Inhibition [8]: 65%
- Average Change [8]: 20 mmHg
- Change (response to AII, individual rat) [9]: 20 mmHg and 10 mmHg
- % Inhibition [9]: 74%
- Average Change [9]: 15 mmHg
- Change (response to AII, individual rat) [10]: 30 mmHg and 25 mmHg
- % Inhibition [10]: 52%
- Average Change [10]: 27.5 mmHg
- Change (response to AII, individual rat) [11]: 15 mmHg and 25 mmHg
- % Inhibition [11]: 65%
- Average Change [11]: 20 mmHg
- Change (response to AII, individual rat) [12]: 35 mmHg and 20 mmHg
- % Inhibition [12]: 52%
- Average Change [12]: 27.5 mmHg
- Change (response to AII, individual rat) [13]: 35 mmHg and 30 mmHg
- % Inhibition [13]: 43%
- Average Change [13]: 32.5 mmHg
- Change (response to AII, individual rat) [14]: 35 mmHg and 30 mmHg
- % Inhibition [14]: 43%
- Average Change [14]: 32.5 mmHg
- Response After AII (individual rat) (after AII 0.05 mcg/kg, 30 min post dose): 260 mmHg and 265 mmHg
- Response After AII (individual rat) (after AII 0.05 mcg/kg, 60 min post dose): 260 mmHg and 255 mmHg
- Response After AII (individual rat) (after AII 0.05 mcg/kg, 90 min post dose): 265 mmHg and 245 mmHg
- Response After AII (individual rat) (after AII 0.05 mcg/kg, 120 min post dose): 255 mmHg and 240 mmHg
- Response After AII (individual rat) (after AII 0.05 mcg/kg, 180 min post dose): 265 mmHg and 260 mmHg
- Response After AII (individual rat) (after AII 0.05 mcg/kg, 240 min post dose): 250 mmHg and 240 mmHg
- Response After AII (individual rat) (after AII 0.05 mcg/kg, 300 min post dose): 275 mmHg and 255 mmHg
- Response After AII (individual rat) (after AII 0.1 mcg/kg, 30 min post dose): 260 mmHg and 280 mmHg
- Response After AII (individual rat) (after AII 0.1 mcg/kg, 60 min post dose): 260 mmHg and 255 mmHg
- Response After AII (individual rat) (after AII 0.1 mcg/kg, 90 min post dose): 285 mmHg and 260 mmHg
- Response After AII (individual rat) (after AII 0.1 mcg/kg, 120 min post dose): 255 mmHg and 250 mmHg
- Response After AII (individual rat) (after AII 0.1 mcg/kg, 180 min post dose): 270 mmHg and 255 mmHg
- Response After AII (individual rat) (after AII 0.1 mcg/kg, 240 min post dose): 285 mmHg and 255 mmHg
- Response After AII (individual rat) (after AII 0.1 mcg/kg, 300 min post dose): 275 mmHg
- Control Before AII (individual rat) (before AII 0.05 mcg/kg, 30 min post dose): 245 mmHg
- Control Before AII (individual rat) (before AII 0.05 mcg/kg, 60 min post dose): 230 mmHg and 240 mmHg
- Control Before AII (individual rat) (before AII 0.05 mcg/kg, 90 min post dose): 235 mmHg
- Control Before AII (individual rat) (before AII 0.05 mcg/kg, 120 min post dose): 245 mmHg and 230 mmHg
- Control Before AII (individual rat) (before AII 0.05 mcg/kg, 180 min post dose): 235 mmHg and 225 mmHg
- Control Before AII (individual rat) (before AII 0.05 mcg/kg, 240 min post dose): 230 mmHg and 233 mmHg
- Control Before AII (individual rat) (before AII 0.05 mcg/kg, 300 min post dose): 245 mmHg and 240 mmHg
- Control Before AII (individual rat) (before AII 0.1 mcg/kg, 30 min post dose): 250 mmHg
- Control Before AII (individual rat) (before AII 0.1 mcg/kg, 60 min post dose): 240 mmHg and 245 mmHg
- Control Before AII (individual rat) (before AII 0.1 mcg/kg, 90 min post dose): 255 mmHg and 235 mmHg
- Control Before AII (individual rat) (before AII 0.1 mcg/kg, 120 min post dose): 240 mmHg and 225 mmHg
- Control Before AII (individual rat) (before AII 0.1 mcg/kg, 180 min post dose): 235 mmHg
- Control Before AII (individual rat) (before AII 0.1 mcg/kg, 240 min post dose): 250 mmHg and 225 mmHg
- Control Before AII (individual rat) (before AII 0.1 mcg/kg, 300 min post dose): 240 mmHg and 245 mmHg
